Data reported in PMC2095803 (Nucleic Acids Research, 2007).
Positions count from the first letter of the chain named.

Columns and labels:
[1] = target: T1, Therminator DNA polymerase (Thermococcus sp., UniProt Q56366, A485L/D141A/E143A); assay: PEP; format: biochemical, Thermococcus species 9ºN-7
T1 sequence (Q56366 1-775 D141A/E143A/A485L): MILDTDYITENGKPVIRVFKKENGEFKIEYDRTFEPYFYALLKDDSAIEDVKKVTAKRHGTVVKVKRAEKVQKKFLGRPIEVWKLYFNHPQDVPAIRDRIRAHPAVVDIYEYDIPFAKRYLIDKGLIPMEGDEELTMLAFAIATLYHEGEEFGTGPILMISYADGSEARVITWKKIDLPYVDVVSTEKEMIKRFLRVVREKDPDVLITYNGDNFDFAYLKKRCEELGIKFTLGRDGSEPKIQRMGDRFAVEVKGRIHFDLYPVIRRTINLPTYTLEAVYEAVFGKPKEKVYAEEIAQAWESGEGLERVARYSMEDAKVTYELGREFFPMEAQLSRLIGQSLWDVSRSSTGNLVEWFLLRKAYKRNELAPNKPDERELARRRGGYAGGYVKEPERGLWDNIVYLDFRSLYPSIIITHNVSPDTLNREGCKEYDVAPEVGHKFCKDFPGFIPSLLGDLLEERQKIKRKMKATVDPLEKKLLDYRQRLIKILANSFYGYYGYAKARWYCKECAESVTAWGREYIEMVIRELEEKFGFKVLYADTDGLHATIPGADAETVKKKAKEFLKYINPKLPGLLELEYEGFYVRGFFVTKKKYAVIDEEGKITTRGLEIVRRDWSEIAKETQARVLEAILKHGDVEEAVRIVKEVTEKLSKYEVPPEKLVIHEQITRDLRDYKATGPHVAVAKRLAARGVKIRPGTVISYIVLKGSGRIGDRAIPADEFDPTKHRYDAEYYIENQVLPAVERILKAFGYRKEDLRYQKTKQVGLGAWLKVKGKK

[2] = target: T2, Therminator II DNA polymerase (Thermococcus sp., UniProt Q56366, A485L/D141A/E143A/Y409V); assay: PEP; format: biochemical, Thermococcus species 9ºN-7
T2 sequence (Q56366 1-775 D141A/E143A/Y409V/A485L): T1 sequence (Q56366 1-775 D141A/E143A/A485L) with Y409V

Bst DNA polymerase = target: T3, Bst DNA polymerase (Geobacillus stearothermophilus, UniProt P52026); assay: Oligonucleotide template assay; format: biochemical, Bacillus stearothermophilus; details: Bst; final concentration of 200 nM
T3 sequence (P52026 289-876 limits assumed): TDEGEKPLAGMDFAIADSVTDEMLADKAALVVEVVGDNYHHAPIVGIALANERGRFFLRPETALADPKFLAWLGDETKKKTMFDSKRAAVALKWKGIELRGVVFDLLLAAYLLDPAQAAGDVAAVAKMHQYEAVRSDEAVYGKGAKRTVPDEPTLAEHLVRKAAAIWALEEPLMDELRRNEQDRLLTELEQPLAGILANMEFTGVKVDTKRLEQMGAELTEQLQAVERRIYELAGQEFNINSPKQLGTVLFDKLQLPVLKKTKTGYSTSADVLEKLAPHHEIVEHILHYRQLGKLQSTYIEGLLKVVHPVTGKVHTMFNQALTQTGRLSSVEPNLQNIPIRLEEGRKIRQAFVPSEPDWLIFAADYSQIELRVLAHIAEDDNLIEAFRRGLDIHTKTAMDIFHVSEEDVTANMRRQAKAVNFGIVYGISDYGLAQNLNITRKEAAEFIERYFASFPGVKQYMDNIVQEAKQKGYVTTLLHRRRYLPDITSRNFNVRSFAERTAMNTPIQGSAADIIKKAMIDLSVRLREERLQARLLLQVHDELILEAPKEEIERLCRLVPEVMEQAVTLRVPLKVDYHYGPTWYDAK

[3] = Therminator, ratio of IC50 values
[4] = Therminator II, ratio of IC50 values

Structure (SMILES)	Incorporation bias Cpd IIIc/dATP [1, 3]	Incorporation bias Cpd IIIc/ddATP [1, 3]	Incorporation bias Cpd IIIc/dATP [2, 4]	Incorporation bias Cpd IIIc/ddATP [2, 4]	Incorporation / termination of DNA synthesis (Bst DNA polymerase)	IC50 [1] [nM]	Incorporation bias ddATP/dATP [1, 3]	IC50 [2] [nM]	Incorporation bias ddATP/dATP [2, 4]
O=[N+]([O-])c1ccccc1CNc1ncnc2c1ncn2[C@H]1C[C@H](O)[C@@H](COP(=O)(O)OP(=O)(O)OP(=O)(O)O)O1 [Compound IIIc, N^6-(2-Nitrobenzyl)-2’-deoxyadenosine-5’-triphosphate]	1.3	0.32	1.8	0.034	efficient, base-specific termination of DNA synthesis	–	–	–	–
Nc1ncnc2c1ncn2[C@H]1CC[C@@H](COP(=O)(O)OP(=O)(O)OP(=O)(O)O)O1 [ddATP, 2′,3′-dideoxyadenosine triphosphate, reference compound]	–	–	–	–	–	9.7 ± 1.1	4.2	230 ± 30	52
